Test results published in patent US10421784B2, “Cell penetrating peptides for intracellular delivery of molecules” (AADIGEN, LLC, priority 2012, dated 2019).
Read-outs that look alike come from different tables or passages of the source. Each block holds one compound with its values, some of them ahead of it.

Columns and labels:
[1] = Fluorescence titration, VEPEP-9/cargo binding; conditions: cargo SHM
Procedure: (§1) Fluorescence experiments were performed on a PTI spectrofluorimeter at 25° C. in a NaCl 154 mM buffer. Intrinsic Trp-fluorescence of VEPEP-9 was excited at 290 nm and emission spectrum was recorded between 310 and 400 nm, with a spectral band-pass of 2 and 8 nm for excitation and emission, respectively. FITC- or CY5-fluorescence of labelled-peptide or Oligonucleotide were excited at 492 nm and emission recorded between 500 and 580 nm. For VEPEP-9/peptide interaction, 0.5 μM of FITC-labelled peptide was titrated by increasing concentrations of VEPEP-9. For VEPEP-9/oligonucleotide interaction, 200 nM of FITC or CY5-labelled oligodeoxynucleotide (ODN) was titrated by increasing concentrations of VEPEP-9. All measurements were corrected for the dilution and curve fitting were performed by using Grafit software (Erithacus).
(§2) VEPEP-9 peptide form stable complexes with peptides and ODN. The binding of cargos to VEPEP-9 was monitored by fluorescence spectroscopy using the both intrinsic Trp group of VEPEP-9 (3 to 5 Trp-residues) and extrinsic fluorescently labelled cargoes (using Cy3, Cy5 or FITC). Curve fitting reveal that VEPEP-9 strongly binds the different cargoes with dissociation constant in the nanomolar range (Tables 1 and 2 and FIG. 2).
(§3) VEPEP-9 peptides form stable particles with different cargoes including peptide, siRNA, PNA and small aromatic (FIG. 2). The dissociation constant for peptide, siRNA, PNA and small hydrophobic molecule ranges between 10-100 nM, 5-50 nM, 5-50 nM and 0.02 to 0.2 μM, respectively, depending on the nature of the dyes and of the cargoes.

PNA (15 mer -PNA) = experiment: Fluorescence titration, VEPEP-9/cargo binding; conditions: cargo PNA (15 mer)
Procedure: as §1, §2, §3

Peptide (C4) = experiment: Fluorescence titration, VEPEP-9/cargo binding; conditions: cargo peptide (C4)
Procedure: as §1, §2, §3

siRNA = experiment: Fluorescence titration, VEPEP-9/cargo binding; conditions: cargo siRNA
Procedure: as §1, §2, §3

[2] = Fluorescence titration, VEPEP-9/SHM binding
Procedure: as §1
Binding of small molecule cargoes has been investigated in detailed depending on the nature of the SHM. Several hydrophobic molecules have been used (Daunomycin, Paclitaxel, doxorubicin, porphyrin), as well as charged molecules (nucleotide, nucleoside and fluorescent dyes).

CEM-SS [3] = experiment: Uptake of Cy-5 labelled small peptide (FACS); type: cell-based, Human
Procedure: (§4) Adherent HS68 fibroblasts, HeLa, PC3, MCF-7, SCK3-Her2, PBMC cell lines (from American Type Culture Collection (ATCC)) were cultured in Dulbecco's Modified Eagle's Medium supplemented with 2 mM glutamine, 1% antibiotics (streptomycin 10,000 μg/ml, penicillin, 10,000 IU/ml) and 10% (w/v) foetal calf serum (FCS), at 37° C. in a humidified atmosphere containing 5% CO2. Stock solutions of VEPEP-9/peptide particles were prepared by complexing 1 μM peptide with VEPEP-9 peptides at a molar ratio of 1/20 for 30 min at 37° C. Lower concentrations of VEPEP-9-carrier/peptide (from 500 nM to 1 μM) were obtained by serial dilution of the stock complexes in PBS, in order to preserve the same VEPEP-9-carrier/peptide ratio. Stock solutions of VEPEP-9/siRNA particles were prepared by complexing 100 nM siRNA with VEPEP-9 peptides at a molar ratio of 1/20 for 30 min at 37° C. Lower concentrations of VEPEP-9/siRNA (from 20 nM to 0.125 nM) were obtained by serial dilution of the stock complexes in PBS, in order to preserve the same VEPEP-9/siRNA ratio. 150,000 cells seeded in a 35 mm dish the day prior transfection, were grown to 60% confluence and overlaid with 200 μl of preformed complexes, incubated for 3-5 min, then 400 μl of DMEM were added. After 30 min. incubation at 37° C., 1 ml of fresh DMEM containing 16% foetal calf serum (FCS) was added in order to reach a final FCS concentration of 10%, without removing the overlay of VEPEP-9/cargo complexes. Cells were returned to the incubator for 24 hrs. For cdk2 derived peptides, cell proliferation was monitored after 24 and 48 hrs. For siRNA targeting Cyclin B1, Cyclin B1 mRNA level was determined 24 hrs following transduction, using Quantigen (Pommies Inc.). Data reported are an average of 3 or 4 distinct experiments.
(§5) VEPEP-9a, VEPEP-9c and VEPEP-9f have been used for the delivery of small peptides into different cell lines, including primary cell lines, stem cell lines and challenging cell lines. Cargoes uptake was monitored using fluorescence spectroscopy and FACS analysis. Fluorescently labelled peptides were visualized in the different cell lines using fluorescence microscopy or FACS sorting (Table 4). In most of the cell lines, the uptake of Cy-5 labelled peptide is more than 70% of the cells.

HS-68 [4] = experiment: Uptake of Cy-5 labelled small peptide (FACS); type: cell-based, Human
Procedure: as §4, §5

Hela [5] = experiment: Uptake of Cy-5 labelled small peptide (FACS); type: cell-based, Human
Procedure: as §4, §5

HepG2 [6] = experiment: Uptake of Cy-5 labelled small peptide (FACS); type: cell-based, Human
Procedure: as §4, §5

Jurkat [7] = experiment: Uptake of Cy-5 labelled small peptide (FACS); type: cell-based, Human
Procedure: as §4, §5

MCF7 [8] = experiment: Uptake of Cy-5 labelled small peptide (FACS); type: cell-based, Human
Procedure: as §4, §5

MT4 [9] = experiment: Uptake of Cy-5 labelled small peptide (FACS); type: cell-based, Human
Procedure: as §4, §5

U2OS [10] = experiment: Uptake of Cy-5 labelled small peptide (FACS); type: cell-based, Human
Procedure: as §4, §5

C2C12 [11] = experiment: Uptake of Cy-5 labelled small peptide (FACS); type: cell-based, Mouse
Procedure: as §4, with “Cells were returned to the incubator for 24 hrs.” left out, “Data reported are an average of 3 or 4 distinct experiments.” left out
as §5, with “In most of the cell lines, the uptake of Cy-5 labelled peptide is more than 70% of the cells.” left out

MEF [12] = experiment: Uptake of Cy-5 labelled small peptide (FACS); type: cell-based, Mouse
Procedure: as §4, with “Cells were returned to the incubator for 24 hrs.” left out, “Data reported are an average of 3 or 4 distinct experiments.” left out
as §5, with “In most of the cell lines, the uptake of Cy-5 labelled peptide is more than 70% of the cells.” left out

STEM [13] = experiment: Uptake of Cy-5 labelled small peptide (FACS); type: cell-based, Mouse
Procedure: as §4, with “Cells were returned to the incubator for 24 hrs.” left out, “Data reported are an average of 3 or 4 distinct experiments.” left out
as §5, with “In most of the cell lines, the uptake of Cy-5 labelled peptide is more than 70% of the cells.” left out

CEM-SS [14] = experiment: Uptake of Cy-5 labelled PNA (FACS); type: cell-based, Human
Description: (§6) VEPEP-9 peptides have been used for the delivery of nucleic acid analogues (PNA and morpholino) into different cell lines, including primary cell lines and challenging cell lines. […] Uptake was monitored using fluorescence spectroscopy and following biological response (Cyclin B1 knockdown).
(§7) Fluorescently labelled PNA was visualized in the different cell lines using fluorescence microscopy or FACS sorting (Table 5). In most of the cell lines, the uptake of Cy-5 labelled PNA is more than 60% of the cells.

HS-68 [15] = experiment: Uptake of Cy-5 labelled PNA (FACS); type: cell-based, Human
Description: as §6, §7

Hela [16] = experiment: Uptake of Cy-5 labelled PNA (FACS); type: cell-based, Human
Description: as §6, §7

HepG2 [17] = experiment: Uptake of Cy-5 labelled PNA (FACS); type: cell-based, Human
Description: as §6, §7

Jurkat [18] = experiment: Uptake of Cy-5 labelled PNA (FACS); type: cell-based, Human
Description: as §6, §7

MCF7 [19] = experiment: Uptake of Cy-5 labelled PNA (FACS); type: cell-based, Human
Description: as §6, §7

MT4 [20] = experiment: Uptake of Cy-5 labelled PNA (FACS); type: cell-based, Human
Description: as §6, §7

U2OS [21] = experiment: Uptake of Cy-5 labelled PNA (FACS); type: cell-based, Human
Description: as §6, §7

C2C12 [22] = experiment: Uptake of Cy-5 labelled PNA (FACS); type: cell-based, Mouse
Description: as §6, §7

MEF [23] = experiment: Uptake of Cy-5 labelled PNA (FACS); type: cell-based, Mouse
Description: as §6, §7

STEM [24] = experiment: Uptake of Cy-5 labelled PNA (FACS); type: cell-based, Mouse
Description: as §6, §7

cultured cells = experiment: Cell cycle progression / cyclin B1 levels in cultured cells; type: cell-based; conditions: carrier alone (200 μM)
SKB3 = experiment: Inhibition of cancer cell proliferation by delivered drugs; type: cell-based; conditions: drug complexed with VEPEP-9f at molar ratio 1/20, read-out: VEPEP-9f IC50
MCF7 [25] = experiment: as above; type: cell-based; conditions: Homo sapiens
[26] = system: SKB3-HEK2 xenografted mice; experiment: Survival after intravenous NANOPEP-9/doxorubicin; type: in vivo; conditions: free Doxo (20 mg/Kg), intravenous every 4 days
Procedure: NANOPEP-9 peptides (VEPEP-9a, b, d, f variants) have been used for the delivery of doxorubicin in vivo. The potential of NANOPEP-9 to deliver doxorubicin in vivo was evaluated on SKB3-HEK2 xenografted mice. Doxorubicin was complexed with VEPEP-9 peptide at a molar ratio of 1/20 with NANOPEP-9a, NANOPEP-9f and NANOPEP-9a-PEG. The treatment was started 10 days after tumor inoculation and with 2 mg/kg and 10 mg/Kg doses of drug and injected every 4 days by systemic Intravenous administration and mice were monitored for survival (FIG. 15).

Binding [1]: Yes
Kd [1]: 20 to 100 nM
Binding (PNA (15 mer -PNA)): Yes
Kd (PNA (15 mer -PNA)): > 50 nM
Binding (Peptide (C4)): yes
Binding (siRNA): yes
Kd (siRNA): > 200 nM
Binding ([2]; cargo AZT): No
Binding ([2]; cargo Doxorubicin): yes
Binding ([2]; cargo FAM-guanosine): yes
Kd ([2]; cargo FAM-guanosine): 800 nM
Binding ([2]; cargo porphyrin): yes
Kd ([2]; cargo porphyrin): 110 nM
Compound: X1WWRWWAPWARSWWR [VEPEP-9f, X1 is beta-A or S]
Efficiency (uptake of Cy-5 labelled small peptide) (CEM-SS [3]): 87%
Efficiency (uptake of Cy-5 labelled small peptide) (HS-68 [4]): 67%
Efficiency (uptake of Cy-5 labelled small peptide) (Hela [5]): 60%
Efficiency (uptake of Cy-5 labelled small peptide) (HepG2 [6]): 48%
Efficiency (uptake of Cy-5 labelled small peptide) (Jurkat [7]): 65%
Efficiency (uptake of Cy-5 labelled small peptide) (MCF7 [8]): 89%
Efficiency (uptake of Cy-5 labelled small peptide) (MT4 [9]): 56%
Efficiency (uptake of Cy-5 labelled small peptide) (U2OS [10]): 57%
Efficiency (uptake of Cy-5 labelled small peptide) (C2C12 [11]): 57%
Efficiency (uptake of Cy-5 labelled small peptide) (MEF [12]): 75%
Efficiency (uptake of Cy-5 labelled small peptide) (STEM [13]): 76%
Efficiency (uptake of Cy-5 labelled PNA) (CEM-SS [14]): 78%
Efficiency (uptake of Cy-5 labelled PNA) (HS-68 [15]): 71%
Efficiency (uptake of Cy-5 labelled PNA) (Hela [16]): 78%
Efficiency (uptake of Cy-5 labelled PNA) (HepG2 [17]): 71%
Efficiency (uptake of Cy-5 labelled PNA) (Jurkat [18]): 81%
Efficiency (uptake of Cy-5 labelled PNA) (MCF7 [19]): 83%
Efficiency (uptake of Cy-5 labelled PNA) (MT4 [20]): 67%
Efficiency (uptake of Cy-5 labelled PNA) (U2OS [21]): 89%
Efficiency (uptake of Cy-5 labelled PNA) (C2C12 [22]): 69%
Efficiency (uptake of Cy-5 labelled PNA) (MEF [23]): 74%
Efficiency (uptake of Cy-5 labelled PNA) (STEM [24]): 88%
effect on cell cycle progression (cultured cells): no effect

Compound: COc1cccc2c1C(=O)c1c(O)c3c(c(O)c1C2=O)C[C@@](O)(C(=O)CO)C[C@@H]3O[C@H]1C[C@H](N)[C@H](O)[C@H](C)O1 [Doxo, doxorubicin]
IC50 (SKB3): 600 nM
IC50 (MCF7 [25]; drug complexed with VEPEP-9a at molar ratio 1/20, read-out: VEPEP-9a IC50): 100 nM
IC50 (MCF7 [25]; drug complexed with VEPEP-9f at molar ratio 1/20, read-out: VEPEP-9f IC50): 700 nM
IC50 (MCF7 [25]; drug complexed with VEPEP-9d at molar ratio 1/20, read-out: VEPEP-9d IC50): 170 nM
survival time [26]: 16 days
